EP0642790A2, “Alkali citrates and their use as medicaments, especially against arterosclerosis” (MADAUS AG, priority 1993, dated 1995)
Like-named read-outs stand apart in the source and are kept apart here.

Experiments:
[1] = design: species or system Ratten (Sprague-Dawley-Ratten); conditions: rat, in vivo
From the text: (§1) Pentobarbital betäubten Ratten (Sprague-Dawley-Ratten) wurde die Aorta aseptisch entnommen, in acht 5 mm große Segmente geschnitten und in sterile Diffusionskammern (Fa. Millipore GmbH, Eschborn), mit einem Durchmesser von 14 mm und einer Porengröße von 0,22 µm fixiert. Jeweils 2 Kammern wurden in die Bauchhöhle einer Ratte implantiert. Die Versuchsgruppen bestanden aus mindestens 7 Ratten.
(§2) Jedem Versuchstier wurden pro Tag 2,1 mmol Citrat oral in zwei gleichen Dosen appliziert, nach 22 Tagen die beiden Diffusionskammern entnommen und die Aorta-Abschnitte licht-, elektronenmikroskopisch, röntgenspektrographisch sowie elementar-analytisch untersucht. Zur histologischen Untersuchung wurden die Gewebeabschnitte in 8% Formalin fixiert, die Aortaabschnitte für die lichtmikroskopischen Untersuchung nach Kossa mit Hämatoxylin und Eosin gefärbt sowie diejenigen zur elektronenmikroskopischen Untersuchung in 2,5% Glutaraldehyd und anschließend in 1% Osmiumtetroxyd fixiert. Die Bestimmung der maximalen Ablagerungsschichtdicke erfolgte mittels Okularmikrometer und die Flächenausdehnung der Ablagerungsschicht der jeweiligen Aortasegmente wurden nach bekannten Methoden ermittelt.
Der Umstand, daß Alkalicitrate ohne Nebenwirkungen im Gegensatz zu bekannten o.g. Medikamente auf die Nierentätigkeit ist, ergibt sich auch aus der Bestimmung der Urinzusammensetzung [Tabelle (2B)). Die Konzentrationen von beispielsweise cAMP unterschieden sich nur unwesentlich von denen der Kontrolle.

[2] = test system: Ablagerungen in Aortasegmenten; assay: Calcification (deposit formation) of rat aorta segments in diffusion chambers implanted into the abdominal cavity of rats; histology and morphometry; format: in vivo, Ratten (Sprague-Dawley-Ratten); conditions: for Fläche (Flächenausdehnung der Ablagerungen) / Minimierung der Flächenausdehnung der Ablagerungen im Vergleich zur Kontrolle: 2,1 mmol Citrat per day orally; for Fläche (Flächenausdehnung der Ablagerungen) / Dicke (Ablagerungsschichtdicke) / Minimierung der Flächenausdehnung der Ablagerungen im Vergleich zur Kontrolle: 22 days; for Fläche (Flächenausdehnung der Ablagerungen): Kontrolle 240; for histologisch-lichtmikroskopische Untersuchung der Querschnitte der Aortaabschnitte: Kontrolle: pronounced deposit formation; for Abnahme der Ablagerungsschichtdicke im Vergleich zu der Kontrolle (Faktor): factor versus Kontrolle (55 µm); for relative Volumina %: relative to Kontrolle = 100; for relative Volumina: thickness multiplied by area, Kontrolle 13200; for Dicke (Ablagerungsschichtdicke): 2,1 mmol Citrat per day orally in two doses, maximal deposit layer thickness by ocular micrometer, Kontrolle 55
From the text: as §1
Folgende wäßrige Citrat-Lösungen wurden oral appliziert:
as §2

[3] = design: species or system Ratten (Sprague-Dawley-Ratten); conditions: rat, in vivo; remark: listed apart in the source
From the text: as §1, §2
Das bedeutet, daß die Verstoffwechslung erhöhter Gaben von KNC, KC oder NC im Organismus nicht zu einer Veränderung der Serumzusammensetzung führt und daß daher die Nierenfiltration aufgrund der im Normbereich befindlichen Fraktionen der ultrafiltrierbaren und ionablen Fraktion des Serums nicht beeinträchtigt wird.
Um die Wirkung der Applikationen von KNC, NC und KC auf den Hormonhaushalt zu überprüfen, wurde die Konzentration von PTH im Blut analysiert.

Aortasegmenten = assay: Mineral content and calcium/phosphorus quotient in the implanted aorta segments; format: in vivo, Ratten (Sprague-Dawley-Ratten); conditions: for Calcium, Konzentration in Aortasegmenten: mean (range of measured values), Kontrolle 4,77; for Magnesium, Konzentration in Aortasegmenten / Phosphor, Konzentration in Aortasegmenten: mean (range); for Magnesium, Konzentration in Aortasegmenten: Kontrolle 0,20; for Phosphor, Konzentration in Aortasegmenten: Kontrolle 4,47
From the text: as §1, §2

Substance | Citrat [1] | Magnesium [1] | cAMP [1] | Fläche (Flächenausdehnung der Ablagerungen) [2] | histologisch-lichtmikroskopische Untersuchung der Querschnitte der Aortaabschnitte [2] | Abnahme der Ablagerungsschichtdicke im Vergleich zu der Kontrolle (Faktor) [2] | relative Volumina % [2] | relative Volumina [2] | Calcium [3] | Calcium/ Protein [3] | Citrat [3] | Ges.CO2 [3] | Ges.Protein [3] | Kreatinin [3] | PTH [3] | arteriell-venöse pH-Wert, Konzentrationen an Gesamt-CO₂, Citrat, Magnesium und Phosphor im Blut [3] | pH [3] | Calcium, Konzentration in Aortasegmenten (Aortasegmenten) | Magnesium, Konzentration in Aortasegmenten (Aortasegmenten) | Phosphor, Konzentration in Aortasegmenten (Aortasegmenten) | further results
Na₃C₆H₅O₇ x 2 H₂O [NC] | 19,7 (15,8-30,4)^2 µmol/g | 4,0 (2,6-8,0)^3 µmol/mg | 13,5 (12,1-14,2) nmol/mg | 159 | gleichmäßig verteilte ohne besondere Erhebungen gestaltete Ablagerungsschicht | > 2 | 31% | 4134 | 2,20 (2,04-2,30)^3 mmol/l | 46 (42-50) µmol/g | 171 (140-212) µmol/l | 40,9 (29,6-51,8) mmol/g | 48,3 (44,8-55,3)^2 g/l | 31,8 (30,1-33,6)^1 µmol/l | 200-415 | nicht verändert | 7,43 (7,35-7,49) | 4,20 (2,61-10,90) mmol/g | 0,28 (0,20-0,33)^1 mmol/g | 6,35 (3,34-14,60) mmol/g | –
K₃C₆H₅O₇ x 1 H₂O [KC] | 22,0 (11,3-25,0)^2 µmol/g | 3,4 (1,8-9,1)^3 µmol/mg | 12,9 (9,9-16,0) nmol/mg | 98 | gleichmäßig verteilte ohne besondere Erhebungen gestaltete Ablagerungsschicht | – | 25% | 3234 | 2,27 (2,20-2,43)^1 mmol/l | 44 (42-46) µmol/g | 163 (96-248) µmol/l | 45,0 (39,2-50,8) mmol/g | 51,0 (48,3-53,3)^2 g/l | 31,8 (25,6-39,8) µmol/l | 200-468 | nicht verändert | 7,39 (7,31-7,45) | 5,09 (3,15-10,81) mmol/g | 0,28 (0,20-0,43)^2 mmol/g | 7,66 (2,97-17,74) mmol/g | Dicke (Ablagerungsschichtdicke) [2]: 33 µm; Minimierung der Flächenausdehnung der Ablagerungen im Vergleich zur Kontrolle [2]: 41%
K₆Na₆H₃(C₆H₅O₇)₅ x 2 H₂O [KNC] | 20,0 (13,2-30,3)^1 µmol/g | 3,7 (1,4-8,0)^3 µmol/mg | 11,6 (9,0-15,9) nmol/mg | 131 | gleichmäßig gestaltete (ohne besondere Erhebungen), stark verringerte Plaqueschicht | 2,4 | 23% | 3013 | 2,27 (2,22-2,33)^1 mmol/l | 45 (40-47) µmol/g | 164 (55-244) µmol/l | 40,9 (36,9-45,1) mmol/g | 50,7 (47,5-57,0)^2 g/l | 30,9 (15,9-35,4)^2 µmol/l | 200-553 | nicht verändert | 7,39 (7,34-7,43) | 4,93 (3,40-7,16) mmol/g | – | 6,80 (2,09-10,51)^1 mmol/g | Dicke (Ablagerungsschichtdicke) [2]: 23 µm; Minimierung der Flächenausdehnung der Ablagerungen im Vergleich zur Kontrolle [2]: 54%; Ablagerungsdicke im Gegensatz zur Kontrolle ([2]; thickness as percent of Kontrolle): < 55%; PTH-Level im Blut, Unterschied zur Kontrolle [3]: keine Unterschiede; Magnesium in Aortasegmenten, Vergleich der Gruppen (Aortasegmenten; in words): höchsten Magnesiumanstieg
